Assay results reported in PubChem BioAssay AID248 (DTP/NCI, 2004).
“And” between values parts separate entries of the source, which are not always exact repeats. Equal values may be shown once. Inconclusive results and toxic doses are left out.

Tested on: L1210 leukemia ip in BDF1 mice, survival T/C
Experiment: NCI In Vivo Anticancer Drug Screen. Data for tumor model L1210 Leukemia (intraperitoneal) in B6D2F1 (BDF1) mice
Conditions: endpoint: mean survival time, higher = longer survival
Outline: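 Mice bearing the transplanted tumor received compound or vehicle. Survival of the treated group was divided by that of the vehicle-treated control group to give the ratio.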

Structure (SMILES): O=C(Nc1ccc(C2=NCCN2)cc1)c1cccc(C(=O)Nc2ccc(C3=NCCN3)cc2)c1
- T/C (dose: 1.0 mg/kg/injection, schedule: Q#A X Z (ip), vehicle: methylcellulose (MC)): 114 % of control
- T/C (dose: 1.4 mg/kg/injection, schedule: Q01DX Z (ip), vehicle: methylcellulose (MC)): 104 % of control
- T/C (dose: 1.88 mg/kg/injection, schedule: Q01DX Z (ip), vehicle: saline): 113 % of control
- T/C (dose: 2.0 mg/kg/injection, schedule: Q01DX Z (ip), vehicle: methylcellulose (MC)): 117 % of control
- T/C (dose: 2.5 mg/kg/injection, schedule: Q01DX Z (iv), vehicle: other): 94 % of control and 100 % of control
- T/C (dose: 4.0 mg/kg/injection, schedule: Q#A X Z (ip), vehicle: methylcellulose (MC)): 158 % of control
- T/C (dose: 5.0 mg/kg/injection, schedule: Q01DX Z (iv), vehicle: other): 94 % of control
- T/C (dose: 6.0 mg/kg/injection, schedule: Q03DX Z (ip), vehicle: methylcellulose (MC)): 109 % of control
- T/C (dose: 6.6 mg/kg/injection, schedule: Q01DX015 (ip), vehicle: carboxymethylcellulose (CMC)): 236 % of control
- T/C (dose: 7.5 mg/kg/injection, schedule: Q01DX009 (ip), vehicle: saline): 171 % of control
- T/C (dose: 7.5 mg/kg/injection, schedule: Q01DX Z (ip), vehicle: methylcellulose (MC)): 168 % of control
- T/C (dose: 8.0 mg/kg/injection, schedule: Q01DX004 (im), vehicle: olive oil, sesame oil, peanut oil): 97 % of control
- T/C (dose: 8.0 mg/kg/injection, schedule: Q01DX Z (ip), vehicle: methylcellulose (MC)): 164 % of control
- T/C (dose: 8.0 mg/kg/injection, schedule: Q#A X Z (ip), vehicle: methylcellulose (MC)): 273 % of control
- T/C (dose: 9.9 mg/kg/injection, schedule: Q01DX015 (ip), vehicle: carboxymethylcellulose (CMC)): 261 % of control
- T/C (dose: 10.0 mg/kg/injection, schedule: Q01DX Z (iv), vehicle: other): 97 % of control and 100 % of control
- T/C (dose: 15.0 mg/kg/injection, schedule: Q01DX009 (ip), vehicle: saline): 173 % of control and 206 % of control
- T/C (dose: 15.0 mg/kg/injection, schedule: Q01DX015 (ip), vehicle: carboxymethylcellulose (CMC)): 309 % of control
- T/C (dose: 15.0 mg/kg/injection, schedule: Q01DX Z (ip), vehicle: carboxymethylcellulose (CMC)): 212 % of control
- T/C (dose: 15.0 mg/kg/injection, schedule: Q01DX Z (ip), vehicle: methylcellulose (MC)): 255 % of control and 369 % of control
- T/C (dose: 15.0 mg/kg/injection, schedule: Q01DX Z (ip), vehicle: saline): 214 % of control and 264 % of control
- T/C (dose: 16.0 mg/kg/injection, schedule: Q01DX004 (im), vehicle: olive oil, sesame oil, peanut oil): 100 % of control
- T/C (dose: 16.0 mg/kg/injection, schedule: Q01DX010 (ip), vehicle: saline): 169 % of control
- T/C (dose: 16.0 mg/kg/injection, schedule: Q01DX Z (ip), vehicle: methylcellulose (MC)): 331 % of control
- T/C (dose: 16.0 mg/kg/injection, schedule: Q#A X Z (ip), vehicle: methylcellulose (MC)): 350 % of control
- T/C (dose: 22.5 mg/kg/injection, schedule: Q01DX015 (ip), vehicle: carboxymethylcellulose (CMC)): 341 % of control
- T/C (dose: 24.0 mg/kg/injection, schedule: Q03DX Z (ip), vehicle: methylcellulose (MC)): 167 % of control
- T/C (dose: 30.0 mg/kg/injection, schedule: Q01DX009 (ip), vehicle: saline): 184 % of control and 240 % of control
- T/C (dose: 30.0 mg/kg/injection, schedule: Q01DX Z (ip), vehicle: carboxymethylcellulose (CMC)): 367 % of control
- T/C (dose: 30.0 mg/kg/injection, schedule: Q01DX Z (ip), vehicle: methylcellulose (MC)): 119 % of control and 329 % of control
- T/C (dose: 30.0 mg/kg/injection, schedule: Q01DX Z (ip), vehicle: saline): 329 % of control
- T/C (dose: 32.0 mg/kg/injection, schedule: Q01DX004 (im), vehicle: olive oil, sesame oil, peanut oil): 97 % of control
- T/C (dose: 32.0 mg/kg/injection, schedule: Q01DX010 (ip), vehicle: saline): 241 % of control
- T/C (dose: 32.0 mg/kg/injection, schedule: Q01DX Z (ip), vehicle: methylcellulose (MC)): 347 % of control
- T/C (dose: 32.0 mg/kg/injection, schedule: Q01DX Z (sc), vehicle: methylcellulose (MC)): 205 % of control
- T/C (dose: 32.0 mg/kg/injection, schedule: Q#A X Z (ip), vehicle: methylcellulose (MC)): 193 % of control
- T/C (dose: 33.75 mg/kg/injection, schedule: Q01DX015 (ip), vehicle: carboxymethylcellulose (CMC)): 316 % of control
- T/C (dose: 48.0 mg/kg/injection, schedule: Q03DX Z (ip), vehicle: methylcellulose (MC)): 267 % of control
- T/C (dose: 56.0 mg/kg/injection, schedule: Q07DX Z (ip), vehicle: methylcellulose (MC)): 166 % of control
- T/C (dose: 60.0 mg/kg/injection, schedule: Q01DX009 (ip), vehicle: saline): 194 % of control and 228 % of control
- T/C (dose: 60.0 mg/kg/injection, schedule: Q01DX Z (ip), vehicle: carboxymethylcellulose (CMC)): 255 % of control
- T/C (dose: 60.0 mg/kg/injection, schedule: Q01DX Z (ip), vehicle: methylcellulose (MC)): 106 % of control
- T/C (dose: 60.0 mg/kg/injection, schedule: Q01DX Z (ip), vehicle: saline): 280 % of control
- T/C (dose: 60.0 mg/kg/injection, schedule: Q01DX Z (oral), vehicle: methylcellulose (MC)): 114 % of control
- T/C (dose: 64.0 mg/kg/injection, schedule: Q01DX004 (im), vehicle: olive oil, sesame oil, peanut oil): 114 % of control
- T/C (dose: 64.0 mg/kg/injection, schedule: Q01DX010 (ip), vehicle: saline): 276 % of control
- T/C (dose: 64.0 mg/kg/injection, schedule: Q01DX Z (sc), vehicle: methylcellulose (MC)): 317 % of control
- T/C (dose: 96.0 mg/kg/injection, schedule: Q03DX Z (ip), vehicle: methylcellulose (MC)): 352 % of control
- T/C (dose: 100.0 mg/kg/injection, schedule: Q01DX001 (ip), vehicle: water): 156 % of control
- T/C (dose: 112.0 mg/kg/injection, schedule: Q07DX Z (ip), vehicle: methylcellulose (MC)): 243 % of control
- T/C (dose: 120.0 mg/kg/injection, schedule: Q01DX009 (ip), vehicle: saline): 334 % of control
- T/C (dose: 120.0 mg/kg/injection, schedule: Q01DX Z (ip), vehicle: methylcellulose (MC)): 89 % of control
- T/C (dose: 120.0 mg/kg/injection, schedule: Q01DX Z (ip), vehicle: saline): 211 % of control
- T/C (dose: 120.0 mg/kg/injection, schedule: Q01DX Z (oral), vehicle: methylcellulose (MC)): 91 % of control
- T/C (dose: 128.0 mg/kg/injection, schedule: Q01DX Z (sc), vehicle: methylcellulose (MC)): 338 % of control
- T/C (dose: 192.0 mg/kg/injection, schedule: Q03DX Z (ip), vehicle: methylcellulose (MC)): 189 % of control
- T/C (dose: 200.0 mg/kg/injection, schedule: Q01DX001 (ip), vehicle: water): 194 % of control
- T/C (dose: 240.0 mg/kg/injection, schedule: Q01DX Z (oral), vehicle: methylcellulose (MC)): 97 % of control
- T/C (dose: 256.0 mg/kg/injection, schedule: Q01DX Z (sc), vehicle: methylcellulose (MC)): 341 % of control
- T/C (dose: 300.0 mg/kg/injection, schedule: Q01DX001 (ip), vehicle: water): 247 % of control
- T/C (dose: 480.0 mg/kg/injection, schedule: Q01DX Z (oral), vehicle: methylcellulose (MC)): 89 % of control

Structure (SMILES): OCCN(CCO)c1nnc(-c2ccccc2)o1
- T/C (dose: 100.0 mg/kg/injection, schedule: Q01DX001 (ip), vehicle: saline): 102 % of control
- T/C (dose: 200.0 mg/kg/injection, schedule: Q01DX001 (ip), vehicle: saline): 94 % of control and 90 % of control
- T/C (dose: 400.0 mg/kg/injection, schedule: Q01DX001 (ip), vehicle: saline): 101 % of control and 91 % of control

Structure (SMILES): CCC1CC(O)c2ccccc2O1 (stereo not drawn)
- T/C (dose: 100.0 mg/kg/injection, schedule: Q01DX001 (ip), vehicle: other): 103 % of control
- T/C (dose: 200.0 mg/kg/injection, schedule: Q01DX001 (ip), vehicle: other): 95 % of control
- T/C (dose: 400.0 mg/kg/injection, schedule: Q01DX001 (ip), vehicle: other): 91 % of control

Structure (SMILES): CCCCCCCCCCCCCCCCn1cnc2c(N)ncnc21
- T/C (dose: 12.5 mg/kg/injection, schedule: Q01DX005 (ip), vehicle: other): 104 % of control
- T/C (dose: 25.0 mg/kg/injection, schedule: Q01DX005 (ip), vehicle: other): 96 % of control
- T/C (dose: 50.0 mg/kg/injection, schedule: Q01DX005 (ip), vehicle: other): 101 % of control
- T/C (dose: 100.0 mg/kg/injection, schedule: Q01DX005 (ip), vehicle: other): 96 % of control
- T/C (dose: 200.0 mg/kg/injection, schedule: Q01DX005 (ip), vehicle: other): 95 % of control

Structure (SMILES): NC(CNO)C(=O)O (stereo not drawn)
- T/C (dose: 100.0 mg/kg/injection, schedule: Q01DX009 (ip), vehicle: saline): 101 % of control
- T/C (dose: 100.0 mg/kg/injection, schedule: Q04DX003 (ip), vehicle: saline): 103 % of control
- T/C (dose: 200.0 mg/kg/injection, schedule: Q01DX009 (ip), vehicle: saline): 103 % of control
- T/C (dose: 200.0 mg/kg/injection, schedule: Q04DX003 (ip), vehicle: saline): 97 % of control
- T/C (dose: 400.0 mg/kg/injection, schedule: Q01DX009 (ip), vehicle: saline): 110 % of control
- T/C (dose: 400.0 mg/kg/injection, schedule: Q04DX003 (ip), vehicle: saline): 111 % of control
